The record followed here is ChEMBL document CHEMBL5291721, “A preclinical secondary pharmacology resource illuminates target-adverse drug reaction associations of marketed drugs” (Nat Commun, 2023).

A value given as a limit tells only on which side of the number the result lay.

Test [1] has as its target Acetylcholinesterase (Homo sapiens, UniProt P22303). The class given is functional.
The target of test [2] is T1, Adenosine receptor A3 (Homo sapiens, UniProt P0DMS8).
T1 sequence (P0DMS8 whole entry): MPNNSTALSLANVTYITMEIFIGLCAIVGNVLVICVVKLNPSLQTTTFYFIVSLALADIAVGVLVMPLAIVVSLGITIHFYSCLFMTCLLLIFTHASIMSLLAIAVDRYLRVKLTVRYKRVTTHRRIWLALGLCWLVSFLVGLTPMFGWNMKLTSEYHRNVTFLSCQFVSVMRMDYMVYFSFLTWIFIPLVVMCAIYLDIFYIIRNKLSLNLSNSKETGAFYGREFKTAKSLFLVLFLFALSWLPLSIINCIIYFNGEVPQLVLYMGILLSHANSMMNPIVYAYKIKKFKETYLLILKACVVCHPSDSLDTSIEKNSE

In test [3] the target is T2, Alpha-1A adrenergic receptor (Homo sapiens, UniProt P35348).
T2 sequence (P35348 whole entry): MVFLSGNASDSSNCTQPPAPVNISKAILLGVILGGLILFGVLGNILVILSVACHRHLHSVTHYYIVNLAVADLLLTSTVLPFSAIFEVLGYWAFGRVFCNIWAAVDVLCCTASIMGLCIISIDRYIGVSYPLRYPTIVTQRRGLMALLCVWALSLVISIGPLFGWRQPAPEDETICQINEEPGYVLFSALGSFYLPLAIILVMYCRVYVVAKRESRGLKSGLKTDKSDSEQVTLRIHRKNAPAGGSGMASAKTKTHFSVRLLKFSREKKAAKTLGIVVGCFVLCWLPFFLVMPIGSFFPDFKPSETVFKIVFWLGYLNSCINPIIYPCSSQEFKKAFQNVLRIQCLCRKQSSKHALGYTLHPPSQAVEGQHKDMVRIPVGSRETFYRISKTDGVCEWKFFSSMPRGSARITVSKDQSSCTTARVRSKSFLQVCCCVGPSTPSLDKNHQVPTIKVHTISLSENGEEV
The class given is functional, cell-based.

Test [4] deals with T2, Alpha-1A adrenergic receptor. The class given is functional, cell-based. The source holds these as a separate data set.
Test [5] has as its target T3, Alpha-2A adrenergic receptor (Homo sapiens, UniProt P08913).
T3 sequence (P08913 whole entry): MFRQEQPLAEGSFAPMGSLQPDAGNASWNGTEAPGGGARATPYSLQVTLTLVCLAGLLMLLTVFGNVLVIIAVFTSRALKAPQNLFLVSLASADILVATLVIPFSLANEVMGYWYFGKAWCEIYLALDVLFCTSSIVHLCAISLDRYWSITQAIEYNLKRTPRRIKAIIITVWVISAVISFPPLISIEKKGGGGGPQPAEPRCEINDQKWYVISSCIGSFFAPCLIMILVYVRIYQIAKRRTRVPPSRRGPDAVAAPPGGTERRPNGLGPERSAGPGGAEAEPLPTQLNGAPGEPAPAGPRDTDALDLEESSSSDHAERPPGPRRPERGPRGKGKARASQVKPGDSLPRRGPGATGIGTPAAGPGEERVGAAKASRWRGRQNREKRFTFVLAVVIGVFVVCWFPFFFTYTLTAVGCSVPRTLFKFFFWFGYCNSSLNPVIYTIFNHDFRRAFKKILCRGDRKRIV

Test [6] concerns the target T4, Muscarinic acetylcholine receptor M2 (Homo sapiens, UniProt P08172).
T4 sequence (P08172 whole entry): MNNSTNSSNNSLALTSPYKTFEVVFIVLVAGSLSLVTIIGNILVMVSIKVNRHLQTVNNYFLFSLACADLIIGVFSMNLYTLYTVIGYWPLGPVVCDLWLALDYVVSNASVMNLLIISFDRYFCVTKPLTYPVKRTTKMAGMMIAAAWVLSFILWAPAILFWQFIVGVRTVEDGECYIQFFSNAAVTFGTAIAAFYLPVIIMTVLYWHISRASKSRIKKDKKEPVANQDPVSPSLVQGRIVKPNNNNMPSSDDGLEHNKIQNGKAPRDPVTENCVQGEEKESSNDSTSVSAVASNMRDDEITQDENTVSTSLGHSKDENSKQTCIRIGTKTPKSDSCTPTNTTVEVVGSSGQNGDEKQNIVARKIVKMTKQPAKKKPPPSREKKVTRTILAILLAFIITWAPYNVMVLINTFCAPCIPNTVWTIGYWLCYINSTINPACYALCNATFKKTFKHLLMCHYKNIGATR

The target of test [7] is D(1A) dopamine receptor (Homo sapiens, UniProt P21728).
Sequence of D(1A) dopamine receptor (P21728 whole entry): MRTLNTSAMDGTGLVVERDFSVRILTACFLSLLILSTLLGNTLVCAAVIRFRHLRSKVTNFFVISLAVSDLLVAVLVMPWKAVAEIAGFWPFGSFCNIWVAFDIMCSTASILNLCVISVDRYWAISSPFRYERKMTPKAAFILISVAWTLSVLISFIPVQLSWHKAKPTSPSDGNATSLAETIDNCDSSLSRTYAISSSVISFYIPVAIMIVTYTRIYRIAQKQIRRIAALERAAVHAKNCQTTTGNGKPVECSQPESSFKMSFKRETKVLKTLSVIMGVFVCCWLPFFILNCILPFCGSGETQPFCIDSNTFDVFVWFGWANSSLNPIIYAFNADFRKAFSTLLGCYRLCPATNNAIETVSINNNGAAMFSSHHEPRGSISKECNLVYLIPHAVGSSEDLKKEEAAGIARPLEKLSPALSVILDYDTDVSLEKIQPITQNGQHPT
Test [8] has as its target Prothrombin (Homo sapiens, UniProt P00734). The class given is functional.
The target in test [9] is T5, 5-hydroxytryptamine receptor 1A (Homo sapiens, UniProt P08908).
T5 sequence (P08908 whole entry): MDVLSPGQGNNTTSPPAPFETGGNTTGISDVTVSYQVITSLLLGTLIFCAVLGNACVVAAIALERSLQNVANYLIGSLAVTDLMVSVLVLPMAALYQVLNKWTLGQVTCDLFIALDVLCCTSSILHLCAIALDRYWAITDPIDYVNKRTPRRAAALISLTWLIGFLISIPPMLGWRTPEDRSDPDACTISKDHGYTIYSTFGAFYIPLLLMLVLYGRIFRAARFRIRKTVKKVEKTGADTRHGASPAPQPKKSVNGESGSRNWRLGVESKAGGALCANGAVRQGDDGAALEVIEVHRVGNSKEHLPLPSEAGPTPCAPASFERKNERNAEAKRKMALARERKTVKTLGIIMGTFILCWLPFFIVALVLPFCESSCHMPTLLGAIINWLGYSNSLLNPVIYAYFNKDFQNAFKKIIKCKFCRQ

Test [10] has as its target 5-hydroxytryptamine receptor 2B (Homo sapiens, UniProt P41595). The test is classed as functional, cell-based.
For test [11], the target named is 3',5'-cyclic-AMP phosphodiesterase 4A (Homo sapiens, UniProt P27815). The test is classed as functional.
Sequence of 3',5'-cyclic-AMP phosphodiesterase 4A (P27815 whole entry): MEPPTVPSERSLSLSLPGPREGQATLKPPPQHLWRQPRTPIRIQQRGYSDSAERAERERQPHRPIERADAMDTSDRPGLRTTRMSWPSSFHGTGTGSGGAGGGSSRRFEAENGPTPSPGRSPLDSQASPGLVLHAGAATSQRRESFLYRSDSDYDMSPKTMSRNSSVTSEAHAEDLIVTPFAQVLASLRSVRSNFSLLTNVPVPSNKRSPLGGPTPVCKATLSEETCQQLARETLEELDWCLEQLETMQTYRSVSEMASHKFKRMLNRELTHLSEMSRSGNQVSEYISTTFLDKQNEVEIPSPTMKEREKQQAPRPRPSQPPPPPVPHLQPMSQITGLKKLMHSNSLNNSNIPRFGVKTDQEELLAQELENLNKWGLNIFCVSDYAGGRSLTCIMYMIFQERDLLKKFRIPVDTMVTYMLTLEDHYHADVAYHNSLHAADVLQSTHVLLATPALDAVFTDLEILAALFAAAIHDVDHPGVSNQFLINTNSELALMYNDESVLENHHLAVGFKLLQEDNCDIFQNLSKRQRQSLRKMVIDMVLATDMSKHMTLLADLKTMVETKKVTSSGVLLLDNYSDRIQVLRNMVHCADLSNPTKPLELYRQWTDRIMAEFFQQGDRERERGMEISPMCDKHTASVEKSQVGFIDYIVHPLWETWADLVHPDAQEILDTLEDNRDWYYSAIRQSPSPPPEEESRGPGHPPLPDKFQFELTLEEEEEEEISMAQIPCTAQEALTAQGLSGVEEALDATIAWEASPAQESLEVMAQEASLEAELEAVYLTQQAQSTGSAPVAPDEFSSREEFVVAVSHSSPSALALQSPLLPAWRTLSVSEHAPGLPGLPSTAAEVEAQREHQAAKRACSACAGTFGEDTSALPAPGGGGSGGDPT
The target in test [12] is T6, Thromboxane A2 receptor (Homo sapiens, UniProt P21731).
T6 sequence (P21731 whole entry): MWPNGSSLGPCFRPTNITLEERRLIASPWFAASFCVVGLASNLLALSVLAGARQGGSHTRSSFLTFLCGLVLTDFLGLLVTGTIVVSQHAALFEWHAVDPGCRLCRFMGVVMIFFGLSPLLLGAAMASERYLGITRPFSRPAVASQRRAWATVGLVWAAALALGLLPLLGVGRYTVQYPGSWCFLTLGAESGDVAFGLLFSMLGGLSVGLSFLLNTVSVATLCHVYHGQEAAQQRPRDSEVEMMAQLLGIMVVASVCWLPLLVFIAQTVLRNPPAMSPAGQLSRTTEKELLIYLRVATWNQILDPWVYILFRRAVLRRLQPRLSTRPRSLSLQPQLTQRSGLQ
The test is classed as functional, cell-based.

Test [13] has as its target T6, Thromboxane A2 receptor. The class given is functional, cell-based. The source holds these as a separate data set.
Note: assay procedure not described here.

Sequence of Acetylcholinesterase (P22303 whole entry): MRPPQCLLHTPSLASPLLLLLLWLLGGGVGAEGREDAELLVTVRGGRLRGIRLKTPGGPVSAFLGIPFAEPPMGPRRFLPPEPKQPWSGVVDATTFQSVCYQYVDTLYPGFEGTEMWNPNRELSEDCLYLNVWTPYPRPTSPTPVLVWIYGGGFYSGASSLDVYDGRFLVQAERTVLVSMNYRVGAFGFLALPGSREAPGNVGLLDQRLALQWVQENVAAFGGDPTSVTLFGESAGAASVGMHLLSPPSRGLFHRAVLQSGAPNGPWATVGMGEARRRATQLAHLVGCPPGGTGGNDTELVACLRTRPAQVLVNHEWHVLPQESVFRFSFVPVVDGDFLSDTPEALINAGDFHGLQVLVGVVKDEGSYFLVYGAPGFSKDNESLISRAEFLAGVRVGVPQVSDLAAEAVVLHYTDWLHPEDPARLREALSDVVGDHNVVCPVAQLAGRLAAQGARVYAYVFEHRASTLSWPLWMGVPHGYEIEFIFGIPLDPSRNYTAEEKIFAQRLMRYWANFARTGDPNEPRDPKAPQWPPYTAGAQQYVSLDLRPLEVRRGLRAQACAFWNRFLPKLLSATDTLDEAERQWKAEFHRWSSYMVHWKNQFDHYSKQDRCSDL
Sequence of 5-hydroxytryptamine receptor 2B (P41595 whole entry): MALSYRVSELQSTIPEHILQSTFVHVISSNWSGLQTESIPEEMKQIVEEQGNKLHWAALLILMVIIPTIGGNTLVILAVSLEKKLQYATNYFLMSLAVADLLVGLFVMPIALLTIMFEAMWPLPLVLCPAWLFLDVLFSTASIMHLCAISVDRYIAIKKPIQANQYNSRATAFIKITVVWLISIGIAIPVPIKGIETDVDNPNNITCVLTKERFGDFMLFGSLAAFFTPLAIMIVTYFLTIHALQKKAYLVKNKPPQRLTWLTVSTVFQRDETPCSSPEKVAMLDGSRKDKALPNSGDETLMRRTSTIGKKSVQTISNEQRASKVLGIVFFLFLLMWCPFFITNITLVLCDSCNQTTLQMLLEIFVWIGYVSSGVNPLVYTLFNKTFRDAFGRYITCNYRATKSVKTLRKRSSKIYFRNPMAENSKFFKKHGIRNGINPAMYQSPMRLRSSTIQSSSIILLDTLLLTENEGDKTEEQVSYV

Broadly, the AC50 is the midpoint of the concentration-response curve, whichever way the signal moves. High values mean activity only at high concentration, low ones activity at low concentration. As to `CC(=O)OC(C)OC(=O)C(C)c1ccc(-c2ccccc2)c(F)c1` (stereo not given), the AC50 in test [1], in test [2], in [3], in test [4], in [5] and in test [6] was more than 30 µM each time. Further, the half-maximal activity concentration (AC50) is more than 30 µM in test [7]; more than 30 µM in test [8]; more than 30 µM in [9]; more than 30 µM in test [10]; 20.2 µM in [11]; more than 30 µM in [12]. In [13], this compound registered a concentration at half-maximal activity (AC50) of more than 30 µM.
For the compound `C[C@@H](O)[C@H]1C(=O)N2C(C(=O)[O-])=C(SC3Cn4cnc[n+]4C3)[C@H](C)[C@H]12` (stereo not given in full) [BIAPENEM], the concentration at half-maximal activity (AC50) in [1], in test [3], in [4], in [5], in test [6] and in test [7] was more than 30 µM throughout. In addition, the AC50 in [8], in test [9], in [10], in [11], in test [12] and in test [13] was more than 30 µM each time.
As for `CO/N=C(\C(=O)N[C@@H]1C(=O)N2C(C(=O)[O-])=C(C[n+]3cccc4c3CCC4)CS[C@H]12)c1csc(N)n1` [CEFPIROME], the concentration at half-maximal activity (AC50) in [1], in test [3], in test [4], in test [5], in [6] and in [7] was more than 30 µM throughout. Moreover, the concentration at half-maximal activity (AC50) in [8], in [9], in [10], in [11], in test [12] and in test [13] was more than 30 µM in each case.
Regarding `Cc1cc(CCN2CCN(c3cccc(Cl)c3)CC2)n[nH]1` [MEPIPRAZOLE], the half-maximal activity concentration (AC50) is more than 30 µM in test [1]; more than 30 µM in test [2]; 0.43 µM in test [3]; 4.52 µM in test [5]; more than 30 µM in test [6]; 0.591 µM in test [7]. In addition, the AC50 in test [8] was more than 30 µM; in test [9], 0.003 µM; in test [10] it was more than 30 µM; in test [11], more than 30 µM; in test [12], more than 30 µM; in [13] it was more than 30 µM.
As for `c1ccc2c(CC3=NCCN3)cccc2c1` [NAPHAZOLINE], the half-maximal activity concentration (AC50) in test [1] is more than 30 µM; in test [2], more than 30 µM; in [3], 0.0014 µM; in test [5] it was 0.022 µM; in [6] it was more than 30 µM; in test [7], more than 30 µM. For the same compound, the AC50 is more than 30 µM in test [8]; 0.114 µM in [9]; more than 30 µM in test [10]; more than 30 µM in test [11]; more than 30 µM in test [12]; more than 30 µM in [13].
Consider `N[C@@H](Cc1c[nH]c2ccc(O)cc12)C(=O)O` [OXITRIPTAN], for which the concentration at half-maximal activity (AC50) was more than 30 µM in test [1]; 0.765 µM in test [2]; more than 30 µM in test [3]; more than 30 µM in test [4]; more than 30 µM in test [5]; more than 30 µM in test [6]. Also, the AC50 is more than 30 µM in test [7]; more than 30 µM in [8]; 10.1 µM in test [10]; more than 30 µM in test [11]; more than 30 µM in test [12]; more than 30 µM in test [13].
On to `CNC(=O)Oc1ccc2c(c1)[C@]1(C)CCN(C)[C@@H]1N2C` [PHYSOSTIGMINE], for which the concentration at half-maximal activity (AC50) in test [2], in [3], in test [4], in test [5], in test [6] and in test [7] was more than 30 µM in each case. The AC50 in test [8], in test [9], in test [10], in test [11], in [12] and in test [13] was more than 30 µM throughout.
Regarding `COCCCOc1ccnc(C[S+]([O-])c2nc3ccccc3[nH]2)c1C` (stereo not given) [RABEPRAZOLE], the concentration at half-maximal activity (AC50) in test [1] was 16.7 µM; in [3], more than 30 µM; in [4] it was more than 30 µM; in [5] it was more than 30 µM; in test [6] it was more than 30 µM; in test [7], more than 30 µM. The AC50 in [8] is more than 30 µM; in [9], 12.8 µM; in test [10], more than 30 µM; in [11], more than 30 µM; in test [12], more than 30 µM; in [13], more than 30 µM.
With `CO[C@H]1/C=C/O[C@@]2(C)Oc3c(C)c(O)c4c(O)c(cc(O)c4c3C2=O)NC(=O)/C(C)=C\C=C\[C@H](C)[C@H](O)[C@@H](C)[C@@H](O)[C@@H](C)[C@H](OC(C)=O)[C@@H]1C` [RIFAMYCIN], the half-maximal activity concentration (AC50) in [1] is more than 30 µM; in test [2] it was more than 30 µM; in [3], 8.13 µM; in test [5] it was more than 30 µM; in test [6], more than 30 µM; in [7] it was more than 30 µM. Also, the half-maximal activity concentration (AC50) in test [8] was more than 30 µM; in test [9], more than 30 µM; in [10] it was more than 30 µM; in test [11], more than 30 µM; in [12] it was 8.77 µM.
Consider `CCSc1ccc2c(c1)N(CCCN1CCN(C)CC1)c1ccccc1S2` [THIETHYLPERAZINE], for which the AC50 is more than 30 µM in [1]; 6.62 µM in [2]; 24.7 µM in test [3]; 0.211 µM in [5]; 2.24 µM in [6]; 0.0079 µM in test [7]. Moreover, the half-maximal activity concentration (AC50) in [8] was more than 30 µM; in test [9] it was 0.449 µM; in test [10], more than 30 µM; in [11], more than 30 µM; in [12], more than 30 µM; in test [13] it was 3.98 µM.
